Patent US6531156B1, “Aqueous solven encapsulation method, apparatus and microcapsules” (Temple University, priority 1994, dated 2003)
Read-outs that look alike come from different tables or passages of the source.

What was measured:
[1] = pH response and retention of bromphenol blue in octadecylamine carboxymethylcellulose microcapsules; assay type: physicochemical; conditions: for colour of microcapsules in acid medium: rehydrated and wet stored microcapsules
Experimental: Step 1: A 100 milligram sample of bromphenol blue (Fisher Scientific Co.) was dissolved in 25 milliliters of a 0.1% solution of sodium carboxymethylcellulose (medium viscosity, Ruger Chemical Co.) and the resulting solution was slowly pumped (approximately 1 milliliter per minute) through a capillary drawn to a fine tip (0.1 millimeter o.d.). The emerging droplets were allowed to fall a distance of about 1 centimeter into a slowly stirred 0.1% aqueous solution of octadecylamine (Aldrich Chemical Co.) solubilized as the acetate at pH 7.0.
Step 2: The resulting approximately 1.5 millimeter diameter microcapsules were stirred for an additional hour and separated with the aid of fine netting. The microcapsules were washed with two 100 milliliter volumes of water. About half the microcapsules were stored wet and refrigerated until used. The other half of the microcapsules were lyophilized and stored dry until used.
Step 3: A few dozen of the lyophilized microcapsules were rehydrated in a few milliliters of water for an hour and were used in parallel with the wet stored microcapsules to test their sensitivity to pH. Dilutions of hydrochloric acid were made to provide solutions with pH values of 2, 3, and 4. To these hydrochloric acid solutions, a few rehydrated and a few wet stored microcapsules were added one at a time.

[2] = tested on: bovine rotavirus strain WC3; conditions: WC3 stock diluted 1:50 in 0.05N sodium salt of polymer or 0.05M amine salt, pH 7.0, versus 0.9% NaCl
[3] = spermine alginate microcapsules, 5 water washes, absorbance after dissolving microcapsules with sodium chloride

## O=S1(=O)OC(c2cc(Br)c(O)c(Br)c2)(c2cc(Br)c(O)c(Br)c2)c2ccccc21 [bromphenol blue]
[1]; octadecylamine carboxymethylcellulose microcapsules, rehydrated and wet stored
  diffusion of encapsulated indicator out of the microcapsule: did not diffuse out of it
[1]; pH 3 solution
  colour of microcapsules in acid medium: changed to yellow within a few minutes
[1]; pH 4 medium
  colour of microcapsules in acid medium: remained blue

## C1CNCCN1 [piperazine]
[2]
  reduction in rotavirus infectivity: 30 fold

## NCCCNCCCCNCCCN [spermine]
[2]
  reduction in rotavirus infectivity: Essentially no effect
[2]; listed as spermine hydrochloride
  reduction in rotavirus infectivity: neither sodium alginate nor spermine hydrochloride reduced rotavirus infectivity

## CN(C)c1ccc2nc3ccc(=[N+](C)C)cc-3sc2c1 [methylene blue]
[2]
  reduction in rotavirus infectivity: Essentially no effect

## CCCCCCCCCCCCN [dodecylamine]
[2]
  reduction in rotavirus infectivity: complete ablation

## O=c1[nH]cc(F)c(=O)[nH]1 [fluorouracil, Fluorouracil]
[3]
  initial amount of core material retained in the microcapsules during the repeated washings: more than half
